Measurements: ChEMBL document CHEMBL2417535, “Synthesis and structure-activity relationships evaluation of benzothiazinone derivatives as potential anti-tubercular agents” (Bioorg Med Chem Lett, 2013)
Values after ≈ are worked out from the molar mass of the structure shown.

How the values were obtained:
[1] = tested on: Mycobacterium tuberculosis; assay: Antitubercular activity against Mycobacterium tuberculosis H37Ra ATCC 25177 by microplate alamar blue assay; type: functional
[2] = Selectivity index, ratio of IC50 for african green monkey Vero cells to MIC for Mycobacterium tuberculosis H37Ra ATCC 25177; type: functional
Vero = assay: Cytotoxicity against african green monkey Vero cells after 72 hrs by MTT assay; type: cell-based; settings: Chlorocebus sabaeus
[3] = Selectivity index, ratio of IC50 for african green monkey Vero cells to MIC for Mycobacterium tuberculosis H37Rv ATCC 27294; type: functional
[4] = tested on: Mycobacterium tuberculosis; assay: Antitubercular activity against Mycobacterium tuberculosis H37Rv ATCC 27294 by microdilution plate assay; type: functional
[5] = tested on: Mycobacterium tuberculosis; assay: Ratio of isoniazid MIC to compound MIC for Mycobacterium tuberculosis H37Rv ATCC 27294; type: functional
[6] = Oral bioavailability in Sprague-Dawley rat at 20 mg/kg; type: ADME, organism-based; settings: in vivo
[7] = AUC (0 to infinity) in Sprague-Dawley rat at 20 mg/kg, po; type: ADME, organism-based; set-up: dose 20 mg/kg, route oral, time infinity; settings: plasma
[8] = Elimination half life in Sprague-Dawley rat at 20 mg/kg, po; type: ADME, organism-based; set-up: dose 20 mg/kg, route oral; settings: in vivo, read-out: beta t1/2 (converted)
[9] = Tmax in Sprague-Dawley rat at 20 mg/kg, po; type: ADME, organism-based; set-up: dose 20 mg/kg, route oral; settings: in vivo
[10] = Cmax in Sprague-Dawley rat at 20 mg/kg, po; type: ADME, organism-based; set-up: dose 20 mg/kg, route oral; settings: in vivo
[11] = AUC (0 to infinity) in Sprague-Dawley rat at 10 mg/kg, iv; type: ADME, organism-based; set-up: time infinity, dose 10 mg/kg, route intravenous; settings: plasma
[12] = Elimination half life in Sprague-Dawley rat at 10 mg/kg, iv; type: ADME, organism-based; set-up: dose 10 mg/kg, route intravenous; settings: in vivo, read-out: beta t1/2 (converted)
[13] = Cmax in Sprague-Dawley rat at 10 mg/kg, iv; type: ADME, organism-based; set-up: dose 10 mg/kg, route intravenous; settings: in vivo
[14] = Lipophilicity, log P of the compound by shake flask method; type: physicochemical; settings: octanol/water
Mycobacterium avium = assay: Antitubercular activity against Mycobacterium avium ATCC 25291 by microdilution plate assay; type: functional, Mycobacterium avium subsp. avium ATCC 25291
[15] = tested on: Mycolicibacterium smegmatis; assay: Antitubercular activity against Mycobacterium smegmatis MC2 155 by microplate alamar blue assay; type: functional; settings: str. MC2 155
Mus musculus = assay: Acute toxicity in BALB/c mouse assessed as mortality at 2 g/kg, po; type: organism-based; settings: in vivo, 2000 mg/kg

| SMILES | MIC [1] | Selectivity Index [2] | IC50 (Vero) | Selectivity Index [3] | MIC [4] | also measured |
| --- | --- | --- | --- | --- | --- | --- |
| CC(C)(C)OC(=O)N1CCN(c2nc(=O)c3cc([N+](=O)[O-])cc([N+](=O)[O-])c3s2)CC1 | 0.4 µM (≈ 175 ng/mL) | – | – | – | – | – |
| CCCNc1nc(=O)c2cc([N+](=O)[O-])cc([N+](=O)[O-])c2s1 | 3.1 µM (≈ 962 ng/mL) | – | – | – | – | – |
| CCCCNc1nc(=O)c2cc([N+](=O)[O-])cc([N+](=O)[O-])c2s1 | 0.8 µM (≈ 259 ng/mL) | – | – | – | – | – |
| CC(C)CNc1nc(=O)c2cc([N+](=O)[O-])cc([N+](=O)[O-])c2s1 | 1.6 µM (≈ 519 ng/mL) | – | – | – | – | – |
| CC(C)(C)Nc1nc(=O)c2cc([N+](=O)[O-])cc([N+](=O)[O-])c2s1 | 0.4 µM (≈ 130 ng/mL) | – | – | – | – | – |
| CC1CCN(c2nc(=O)c3cc([N+](=O)[O-])cc([N+](=O)[O-])c3s2)CC1 | 0.2 µM (≈ 70.1 ng/mL) | – | – | – | – | – |
| CCNc1nc(=O)c2cc(C(F)(F)F)cc([N+](=O)[O-])c2s1 | 6.3 µM (≈ 2010 ng/mL) | >16 | > 100 µM | – | – | – |
| CCCNc1nc(=O)c2cc(C(F)(F)F)cc([N+](=O)[O-])c2s1 | 1.6 µM (≈ 533 ng/mL) | >62 | > 100 µM | – | – | – |
| CCCCNc1nc(=O)c2cc(C(F)(F)F)cc([N+](=O)[O-])c2s1 | 0.8 µM (≈ 278 ng/mL) | >125 | > 100 µM | – | – | – |
| CC(C)CNc1nc(=O)c2cc(C(F)(F)F)cc([N+](=O)[O-])c2s1 | 0.8 µM (≈ 278 ng/mL) | >125 | > 100 µM | – | – | – |
| CCN(CC)c1nc(=O)c2cc(C(F)(F)F)cc([N+](=O)[O-])c2s1 | 0.8 µM (≈ 278 ng/mL) | >125 | > 100 µM | – | – | – |
| O=c1nc(NC2CC2)sc2c([N+](=O)[O-])cc(C(F)(F)F)cc12 | 0.4 µM (≈ 133 ng/mL) | >250 | > 100 µM | – | – | – |
| O=c1nc(NC2CCCC2)sc2c([N+](=O)[O-])cc(C(F)(F)F)cc12 | 0.8 µM (≈ 287 ng/mL) | >125 | > 100 µM | – | – | – |
| O=c1nc(N2CCCC2)sc2c([N+](=O)[O-])cc(C(F)(F)F)cc12 | 0.8 µM (≈ 276 ng/mL) | >125 | > 100 µM | – | – | – |
| O=c1nc(N2CCCCC2)sc2c([N+](=O)[O-])cc(C(F)(F)F)cc12 | 0.8 µM (≈ 287 ng/mL) | – | > 100 µM | >142 | 0.7 µM (≈ 252 ng/mL) | – |
| O=c1nc(N2CCOCC2)sc2c([N+](=O)[O-])cc(C(F)(F)F)cc12 | 3.1 µM (≈ 1120 ng/mL) | >32 | > 100 µM | – | – | – |
| CC1CCN(c2nc(=O)c3cc(C(F)(F)F)cc([N+](=O)[O-])c3s2)CC1 | 0.1 µM (≈ 37.3 ng/mL) | – | > 100 µM | >1250 | 0.08 µM (≈ 29.9 ng/mL) | Ratio [5]: 2.5 |
| O=C(O)C1CCN(c2nc(=O)c3cc(C(F)(F)F)cc([N+](=O)[O-])c3s2)CC1 | 3.1 µM (≈ 1250 ng/mL) | >32 | > 100 µM | – | – | – |
| CC(C)(C)OC(=O)N1CCN(c2nc(=O)c3cc(C(F)(F)F)cc([N+](=O)[O-])c3s2)CC1 | 0.02 µM (≈ 9.21 ng/mL) | – | > 100 µM | >3000 | 0.03 µM (≈ 13.8 ng/mL) | Ratio [5]: 6.7 |
| O=c1nc(N2CCC3(CC2)OCCS3)sc2c([N+](=O)[O-])cc(C(F)(F)F)cc12 | 0.002 µM (≈ 0.867 ng/mL) | – | > 100 µM | >50000 | 0.002 µM (≈ 0.867 ng/mL) | – |
| O=c1nc(N2CCC3(CC2)SCCS3)sc2c([N+](=O)[O-])cc(C(F)(F)F)cc12 | 0.001 µM (≈ 0.45 ng/mL) | – | > 100 µM | >1000000 | 0.0001 µM (≈ 0.045 ng/mL) | bioavailability [6]: 26%; AUC(0-inf) [7]: 780 ng·h/mL; half-life [8]: 5.4 h; Tmax [9]: 0.5 h; Cmax [10]: 560 ng/mL; AUC(0-inf) [11]: 1480 ng·h/mL; half-life [12]: 2.5 h; Cmax [13]: 1720 ng/mL; logP [14]: 3.94; MIC (Mycobacterium avium): 36 µM (≈ 16200 ng/mL); MIC [15]: 0.0063 µM (≈ 2.83 ng/mL); Activity (Mus musculus): Non-toxic; Ratio [5]: 2000 |
| CC1COC2(CCN(c3nc(=O)c4cc(C(F)(F)F)cc([N+](=O)[O-])c4s3)CC2)O1 (racemic) | 0.004 µM (≈ 1.73 ng/mL) | – | > 100 µM | >50000 | 0.002 µM (≈ 0.863 ng/mL) | logP [14]: 2.69; MIC (Mycobacterium avium): 74 µM (≈ 31900 ng/mL); MIC [15]: 0.013 µM (≈ 5.61 ng/mL) |
| NNC(=O)c1ccncc1 [ISONIAZID] | 0.8 µM (≈ 110 ng/mL) | – | > 100 µM | >500 | 0.2 µM (≈ 27.4 ng/mL) | – |
